Results: US20230219986A1, “NOVEL AMINOPYRIMIDINE EGFR INHIBITOR” (QILU PHARMACEUTICAL CO., LTD., priority 2020, published 2023)
pIC50: −log10 of the molar value.

Legend:
wild-type EGFR = target: T1, wild-type EGFR (Homo sapiens, UniProt P00533); assay: Enzymology experiment in vitro (HTRF/FRET kinase activity), wild-type EGFR; type: biochemical; conditions: HTRF KinEASE-TK, read-out: EGFR (WT) IC50
T1 construct: purchased Signalchem
How it was run: (§1)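 Kinase reaction run 40 min at room temperature with peptide and ATP after a 10 min compound–enzyme preincubation. Phosphorylation read as HTRF signal after 1 h with Eu³⁺ antibody, XL665-streptavidin and EDTA (Cisbio KinEASE-TK).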

[1] = target: T2, L858R/T790M/C797S triple mutant EGFR (Homo sapiens, UniProt P00533, C797S/L858R/T790M); assay: Enzymology experiment in vitro (HTRF/FRET kinase activity), L858R/T790M/C797S triple mutant EGFR; type: biochemical; conditions: HTRF KinEASE-TK, read-out: EGFR (L858R/T790M/C797S) IC50
T2 construct: purchased Signalchem
How it was run: as §1

[2] = system: EGFR wild-type cell line A431; assay: Cell proliferation inhibition experiment (CellTiter-Glo), A431; type: cell-based; conditions: Homo sapiens, A-431, 72 h, A431 cells, Cell Titer-Glo, read-out: A431 EGFR WT IC50
How it was run: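 Luminescent CellTiter-Glo readout, 30 min at room temperature, after 72 h compound exposure at 37° C., 5% CO2 with 0.1% DMSO final. EGFR wild-type A431 cells were seeded at 800 per well and grown 24 h before dosing. IC50 derived from the dose-response.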

[3] = target: Ba/F3 De119/T790M/C797S EGFR triple mutant cell line (Homo sapiens, UniProt P00533, T790M/C797S, cells depend on it, form not given); assay: Cell proliferation inhibition experiment (CellTiter-Glo), Ba/F3 De119/T790M/C797S; type: cell-based; conditions: Ba/F3 Del19/T790M/C797S EGFR triple mutant cells, 72 hours, Cell Titer-Glo; read-out: Ba/F3 (Del19/T790M/C797S) IC50
[4] = target: Ba/F3 L858R/T790M/C797S EGFR triple mutant cell line (Homo sapiens, UniProt P00533, T790M/C797S/L858R, cells depend on it); assay: Cell proliferation inhibition experiment (CellTiter-Glo), Ba/F3 L858R/T790M/C797S; type: cell-based; conditions: 72 hours, Cell Titer-Glo, read-out: Ba/F3 (L858R/T790M/C797S) IC50
Sequence of Ba/F3 L858R/T790M/C797S EGFR triple mutant cell line (P00533 whole entry T790M/C797S/L858R): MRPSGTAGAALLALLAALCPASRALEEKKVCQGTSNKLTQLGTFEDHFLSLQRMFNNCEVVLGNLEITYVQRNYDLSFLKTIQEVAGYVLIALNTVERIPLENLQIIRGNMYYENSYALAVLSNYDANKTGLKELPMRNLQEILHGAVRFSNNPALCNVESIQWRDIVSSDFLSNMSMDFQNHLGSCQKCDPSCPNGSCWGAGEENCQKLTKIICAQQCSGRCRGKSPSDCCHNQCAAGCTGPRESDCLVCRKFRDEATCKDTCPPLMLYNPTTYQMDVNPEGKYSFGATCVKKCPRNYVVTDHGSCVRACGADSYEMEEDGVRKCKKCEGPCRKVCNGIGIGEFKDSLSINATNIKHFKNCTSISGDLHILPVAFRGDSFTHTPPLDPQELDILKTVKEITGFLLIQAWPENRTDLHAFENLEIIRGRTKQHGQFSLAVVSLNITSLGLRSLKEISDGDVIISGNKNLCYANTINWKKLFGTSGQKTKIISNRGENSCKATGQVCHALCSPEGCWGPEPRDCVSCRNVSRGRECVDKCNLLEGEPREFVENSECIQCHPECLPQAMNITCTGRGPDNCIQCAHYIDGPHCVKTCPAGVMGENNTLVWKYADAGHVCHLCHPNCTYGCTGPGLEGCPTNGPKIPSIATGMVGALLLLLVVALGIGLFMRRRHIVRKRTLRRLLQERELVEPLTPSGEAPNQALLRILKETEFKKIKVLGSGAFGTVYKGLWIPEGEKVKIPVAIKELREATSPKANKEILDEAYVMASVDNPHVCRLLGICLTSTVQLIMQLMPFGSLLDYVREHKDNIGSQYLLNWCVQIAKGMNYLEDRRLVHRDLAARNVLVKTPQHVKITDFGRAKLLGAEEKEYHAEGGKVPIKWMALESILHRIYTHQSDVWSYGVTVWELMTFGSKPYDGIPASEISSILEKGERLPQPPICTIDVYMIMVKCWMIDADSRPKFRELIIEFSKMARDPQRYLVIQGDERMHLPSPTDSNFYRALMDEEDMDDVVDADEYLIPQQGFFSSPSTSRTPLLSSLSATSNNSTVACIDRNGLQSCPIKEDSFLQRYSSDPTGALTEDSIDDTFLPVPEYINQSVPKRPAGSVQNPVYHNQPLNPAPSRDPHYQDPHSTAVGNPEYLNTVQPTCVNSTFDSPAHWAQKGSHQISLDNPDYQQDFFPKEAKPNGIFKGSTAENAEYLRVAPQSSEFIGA

T2 sequence (P00533 25-1210 T790M/C797S/L858R): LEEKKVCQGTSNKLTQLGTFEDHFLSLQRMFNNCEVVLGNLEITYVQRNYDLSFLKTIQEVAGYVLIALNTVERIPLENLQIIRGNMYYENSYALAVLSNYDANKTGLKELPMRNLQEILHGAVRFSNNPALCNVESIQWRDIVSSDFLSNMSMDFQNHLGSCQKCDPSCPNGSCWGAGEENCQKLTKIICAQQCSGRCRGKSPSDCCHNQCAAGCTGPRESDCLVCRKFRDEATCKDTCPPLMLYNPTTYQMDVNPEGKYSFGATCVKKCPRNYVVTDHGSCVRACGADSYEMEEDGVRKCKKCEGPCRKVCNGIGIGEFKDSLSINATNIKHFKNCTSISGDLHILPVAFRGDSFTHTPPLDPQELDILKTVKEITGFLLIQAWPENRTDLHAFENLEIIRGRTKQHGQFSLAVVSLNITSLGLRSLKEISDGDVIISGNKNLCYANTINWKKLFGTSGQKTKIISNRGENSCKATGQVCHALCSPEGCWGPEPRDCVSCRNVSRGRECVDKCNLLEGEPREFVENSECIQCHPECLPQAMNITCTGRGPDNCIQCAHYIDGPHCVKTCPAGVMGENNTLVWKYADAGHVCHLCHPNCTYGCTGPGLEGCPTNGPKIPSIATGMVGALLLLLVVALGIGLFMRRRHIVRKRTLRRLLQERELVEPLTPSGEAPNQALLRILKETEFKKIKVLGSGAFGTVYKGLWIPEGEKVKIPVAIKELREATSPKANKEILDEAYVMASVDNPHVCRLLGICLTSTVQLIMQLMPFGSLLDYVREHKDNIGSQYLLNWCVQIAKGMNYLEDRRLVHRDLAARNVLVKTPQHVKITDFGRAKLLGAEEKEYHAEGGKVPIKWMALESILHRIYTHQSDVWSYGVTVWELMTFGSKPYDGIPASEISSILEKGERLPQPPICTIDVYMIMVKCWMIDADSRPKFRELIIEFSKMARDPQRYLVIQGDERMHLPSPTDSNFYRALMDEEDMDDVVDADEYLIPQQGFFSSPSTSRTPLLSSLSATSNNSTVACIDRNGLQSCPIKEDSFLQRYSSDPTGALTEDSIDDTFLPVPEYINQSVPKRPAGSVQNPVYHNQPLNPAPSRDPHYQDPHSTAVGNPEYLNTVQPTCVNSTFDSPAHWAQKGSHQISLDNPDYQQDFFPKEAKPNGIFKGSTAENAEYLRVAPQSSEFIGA
Sequence of Ba/F3 De119/T790M/C797S EGFR triple mutant cell line (P00533 with tags, fused parts or gaps DEL746-750/T790M/C797S, form open): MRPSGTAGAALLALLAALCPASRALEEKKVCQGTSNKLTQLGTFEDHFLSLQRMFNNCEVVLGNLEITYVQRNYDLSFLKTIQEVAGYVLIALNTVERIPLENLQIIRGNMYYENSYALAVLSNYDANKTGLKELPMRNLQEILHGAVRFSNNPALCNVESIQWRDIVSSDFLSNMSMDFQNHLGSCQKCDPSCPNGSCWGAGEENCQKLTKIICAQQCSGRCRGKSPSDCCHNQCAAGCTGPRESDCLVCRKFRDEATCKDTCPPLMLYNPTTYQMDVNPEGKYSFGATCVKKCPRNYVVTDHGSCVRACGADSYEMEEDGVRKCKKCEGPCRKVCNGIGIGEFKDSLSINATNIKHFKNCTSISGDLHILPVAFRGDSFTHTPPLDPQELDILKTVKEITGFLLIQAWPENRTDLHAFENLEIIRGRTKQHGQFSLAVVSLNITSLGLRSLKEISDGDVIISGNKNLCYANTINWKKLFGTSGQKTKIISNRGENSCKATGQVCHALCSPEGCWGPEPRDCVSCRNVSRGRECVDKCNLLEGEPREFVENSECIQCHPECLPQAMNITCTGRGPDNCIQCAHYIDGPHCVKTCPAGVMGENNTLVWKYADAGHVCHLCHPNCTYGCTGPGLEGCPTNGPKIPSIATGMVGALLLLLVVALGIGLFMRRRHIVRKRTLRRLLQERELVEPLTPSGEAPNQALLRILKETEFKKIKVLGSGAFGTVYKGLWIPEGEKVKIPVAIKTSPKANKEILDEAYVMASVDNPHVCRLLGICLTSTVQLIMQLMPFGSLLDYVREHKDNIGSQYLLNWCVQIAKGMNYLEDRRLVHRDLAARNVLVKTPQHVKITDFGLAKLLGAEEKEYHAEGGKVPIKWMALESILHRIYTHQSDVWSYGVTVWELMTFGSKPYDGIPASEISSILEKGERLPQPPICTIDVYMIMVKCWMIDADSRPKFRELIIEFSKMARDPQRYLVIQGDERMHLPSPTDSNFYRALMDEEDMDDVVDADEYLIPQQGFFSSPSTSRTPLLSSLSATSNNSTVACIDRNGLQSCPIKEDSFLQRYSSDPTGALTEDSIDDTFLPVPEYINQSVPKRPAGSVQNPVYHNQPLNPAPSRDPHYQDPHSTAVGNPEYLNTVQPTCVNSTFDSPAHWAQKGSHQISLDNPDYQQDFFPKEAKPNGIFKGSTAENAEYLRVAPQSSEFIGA
T1 sequence (P00533 25-1210): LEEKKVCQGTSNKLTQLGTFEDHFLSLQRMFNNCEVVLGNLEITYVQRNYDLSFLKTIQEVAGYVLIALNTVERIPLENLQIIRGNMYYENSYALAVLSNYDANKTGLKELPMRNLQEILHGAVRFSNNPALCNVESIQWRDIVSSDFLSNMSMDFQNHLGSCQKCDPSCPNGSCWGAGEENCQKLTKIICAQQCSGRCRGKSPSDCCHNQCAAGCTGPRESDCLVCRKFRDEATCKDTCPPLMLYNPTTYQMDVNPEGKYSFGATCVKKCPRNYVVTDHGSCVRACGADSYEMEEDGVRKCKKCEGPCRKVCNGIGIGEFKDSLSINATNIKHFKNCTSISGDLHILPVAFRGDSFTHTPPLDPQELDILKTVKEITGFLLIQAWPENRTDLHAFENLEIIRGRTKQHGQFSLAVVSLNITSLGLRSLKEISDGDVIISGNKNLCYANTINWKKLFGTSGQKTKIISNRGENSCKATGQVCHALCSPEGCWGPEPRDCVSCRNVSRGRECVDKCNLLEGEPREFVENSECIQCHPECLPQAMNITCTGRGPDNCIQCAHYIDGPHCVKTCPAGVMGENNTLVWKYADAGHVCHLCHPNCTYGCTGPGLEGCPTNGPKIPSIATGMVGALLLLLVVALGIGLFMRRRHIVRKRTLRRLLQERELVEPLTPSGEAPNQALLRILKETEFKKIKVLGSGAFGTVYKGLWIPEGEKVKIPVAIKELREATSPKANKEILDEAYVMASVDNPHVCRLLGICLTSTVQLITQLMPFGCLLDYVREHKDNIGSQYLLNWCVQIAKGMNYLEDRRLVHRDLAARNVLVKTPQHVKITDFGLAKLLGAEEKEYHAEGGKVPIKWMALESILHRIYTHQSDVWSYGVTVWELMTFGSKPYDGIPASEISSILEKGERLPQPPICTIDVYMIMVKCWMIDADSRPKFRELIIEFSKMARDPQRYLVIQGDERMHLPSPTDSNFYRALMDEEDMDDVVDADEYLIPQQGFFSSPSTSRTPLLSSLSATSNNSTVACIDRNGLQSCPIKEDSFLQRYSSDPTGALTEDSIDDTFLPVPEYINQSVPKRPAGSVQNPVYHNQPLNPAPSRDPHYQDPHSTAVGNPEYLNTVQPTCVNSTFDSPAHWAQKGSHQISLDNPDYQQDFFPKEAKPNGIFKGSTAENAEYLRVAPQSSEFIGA

SMILES | pIC50 (wild-type EGFR) | pIC50 [1] | pIC50 [2] | GI50 [3] [nM] | GI50 [4] [nM]
[2H]C([2H])([2H])N(c1cc(OC)c(Nc2ncc(C)c(Nc3ccc4nccnc4c3P(C)(C)=O)n2)cc1-c1cnn(C)c1)C([2H])([2H])[2H] [compound 143] | 8.76 | 9.39 | 6.38 | 3.23 | 10.2
COc1cc(N2CCC3(CC2)CN(C)CCO3)c(-c2cnn(C)c2)cc1Nc1ncc(Br)c(Nc2ccc3nccnc3c2P(C)(C)=O)n1 [compound 144, (6-((5-bromo-2-((2-methoxy-5-(1-methyl-1H-pyrazol-4-yl)-4-(4-methyl-1-oxa-4,9-diazaspiro[5.5]undecan-9-yl)phenyl)amino)pyrimidin-4-yl)amino)quinoxalin-5-yl)dimethylphosphine oxide] | 8.56 | 9.18 | 7.08 | 0.35 | 1.91
[2H]C([2H])([2H])N(c1cc(OC)c(Nc2ncc(Br)c(Nc3ccc4nccnc4c3P(C)(C)=O)n2)cc1-c1cnn(C)c1)C([2H])([2H])[2H] [compound 145] | 8.46 | 9.51 | 6.69 | 1.7 | 2.41
COc1cc(N2CCC3(CN(C)CCO3)C2)c(-c2cnn(C)c2)cc1Nc1ncc(Br)c(Nc2ccc3nccnc3c2P(C)(C)=O)n1 (stereo not shown) [compound 146] | 8.07 | 9.42 | 6.75 | 1.44 | 5.47
COc1cc(N2CCOCC2)c(-c2cnn(C)c2)cc1Nc1ncc(Br)c(Nc2cc3c(cc2N(C)S(C)(=O)=O)CC3)n1 [compound 147, N-(4-((5-bromo-2-((2-methoxy-5-(1-methyl-1H-pyrazol-4-yl)-4-morpholinylphenyl)amino)pyrimidin-4-yl)amino)bicyclo[4.2.0]octa-1,3,5-trien-3-yl)-N-methylmethanesulfonamide] | 7.28 | 8.94 | 6.32 | 1.3 | 2.93
COc1cc(N2CCC3(CCN(CC(F)F)CC3)CC2)c(-c2cnn(C)c2)cc1Nc1ncc(Br)c(Nc2ccc3nccnc3c2P(C)(C)=O)n1 [compound 149] | 7.11 | 8.47 | 6.42 | 1.62 | 3.21
COc1cc(N2CCN(C3COC3)CC2)c(-c2cnn(C)c2)cc1Nc1ncc(Br)c(Nc2ccc3nccnc3c2P(C)(C)=O)n1 [compound 150, (6-((5-bromo-2-((2-methoxy-5-(1-methyl-1H-pyrazol-4-yl)-4-(4-(oxetan-3-yl)piperazin-1-yl)phenyl)amino)pyrimidin-4-yl)amino)quinoxalin-5-yl)dimethylphosphine oxide] | 8.61 | 9.54 | 6.86 | 1.57 | 3.34
COc1cc(N2CCC(OC(C)C)CC2)c(-c2cnn(C)c2)cc1Nc1ncc(Br)c(Nc2ccc3nccnc3c2P(C)(C)=O)n1 [compound 151] | 7.42 | 8.66 | 6.50 | 1.84 | 7.47
COC[C@H]1CN(c2cc(OC)c(Nc3ncc(Br)c(Nc4ccc5nccnc5c4P(C)(C)=O)n3)cc2-c2cnn(C)c2)CCO1 [compound 152] | 8.37 | 9.46 | 6.88 | 1.06 | 4.59
COc1cc(N2CCN(C)C(CF)C2)c(-c2cnn(C)c2)cc1Nc1ncc(Br)c(Nc2ccc3nccnc3c2P(C)(C)=O)n1 (stereo not shown) [compound 153] | 8.52 | 9.66 | 7.21 | 1.03 | 2.89
COc1cc(NC(C)C(F)(F)F)c(-c2cnn(C)c2)cc1Nc1ncc(Br)c(Nc2ccc3nccnc3c2P(C)(C)=O)n1 (stereo not shown) [compound 154] | 7.43 | 9.07 | 6.33 | 5.26 | 15.4
COc1cc(N2CCC(OCC3CC3)CC2)c(-c2cnn(C)c2)cc1Nc1ncc(Br)c(Nc2ccc3nccnc3c2P(C)(C)=O)n1 [compound 156] | 7.48 | 8.42 | 6.43 | 1.05 | 7.29
COc1cc(N2CCN(CC3CC3)CC2)c(-c2cnn(C)c2)cc1Nc1ncc(Br)c(Nc2ccc3nccnc3c2P(C)(C)=O)n1 [compound 157] | 8.44 | 9.48 | 7.31 | 1.28 | 7.05
COc1cc(N2CCC(N3CCN(C)CC3)CC2)c(-c2cnn(C)c2)cc1Nc1ncc(Br)c(Nc2cc3c(cc2N(C)S(C)(=O)=O)CC3)n1 [compound 158] | 8.61 | 9.09 | 6.78 | 3.28 | 6.76

Second part, the molecule after the results:

pIC50 (wild-type EGFR) | pIC50 [1] | pIC50 [2] | GI50 [3] [nM] | GI50 [4] [nM] | SMILES
8.81 | 9.15 | 6.94 | 0.93 | 4.11 | COc1cc(N2CCC(N3CC(F)C3)CC2)c(-c2cnn(C)c2)cc1Nc1ncc(Br)c(Nc2ccc3nccnc3c2P(C)(C)=O)n1 [compound 159]
8.63 | 9.59 | 6.68 | 1.56 | 9.04 | COc1cc(N2CCOCC2)c(-c2cnn(C)c2)cc1Nc1ncc(Br)c(Nc2ccc3ncccc3c2P(C)(C)=O)n1 [compound 160]
8.57 | 9.41 | 6.81 | 2.36 | 6.39 | COc1cc(N2CCN3CCOCC3C2)c(-c2cnn(C)c2)cc1Nc1ncc(Br)c(Nc2ccc3nccnc3c2P(C)(C)=O)n1 (stereo not shown) [compound 161]
7.69 | 8.64 | 6.29 | 6.2 | 18 | COCC1CCCN(c2cc(OC)c(Nc3ncc(Br)c(Nc4ccc5nccnc5c4P(C)(C)=O)n3)cc2-c2cnn(C)c2)C1 (stereo not shown) [compound 162]
8.72 | 9.55 | 7.14 | 0.62 | 1.97 | COc1cc(N2CCC(N3CCO[C@H](C)C3)CC2)c(-c2cnn(C)c2)cc1Nc1ncc(Br)c(Nc2ccc3nccnc3c2P(C)(C)=O)n1 [compound 163]
8.28 | 9.14 | 6.71 | 3.22 | 8.26 | COc1cc(N2CCN(C(C)C)C(CF)C2)c(-c2cnn(C)c2)cc1Nc1ncc(Br)c(Nc2ccc3nccnc3c2P(C)(C)=O)n1 (stereo not shown) [compound 164]
8.87 | 9.16 | 7.15 | 0.8 | 2.62 | COc1cc(N2CCC(N3CCO[C@@H](C)C3)CC2)c(-c2cnn(C)c2)cc1Nc1ncc(Br)c(Nc2ccc3nccnc3c2P(C)(C)=O)n1 [compound 165]
8.42 | 9.32 | 7.04 | 1.58 | 5.05 | COc1cc(N2CCN3CCCC[C@H]3C2)c(-c2cnn(C)c2)cc1Nc1ncc(Br)c(Nc2ccc3nccnc3c2P(C)(C)=O)n1 [compound 166]
8.71 | 9.10 | 7.32 | 2.97 | 4.34 | COc1cc(N2CCC3(CCN(CC4CC4)CC3)CC2)c(-c2cnn(C)c2)cc1Nc1ncc(Br)c(Nc2ccc3nccnc3c2P(C)(C)=O)n1 [compound 167]
8.59 | 9.46 | 7.17 | 0.71 | 4.2 | COc1cc(N2CCC3CCN(C)C3C2)c(-c2cnn(C)c2)cc1Nc1ncc(Br)c(Nc2ccc3nccnc3c2P(C)(C)=O)n1 (stereo not shown) [compound 168]
8.36 | 9.14 | 6.76 | 2.36 | 4.24 | COc1cc(N2CCO[C@H](C)C2)c(-c2cnn(C)c2)cc1Nc1ncc(Br)c(Nc2ccc3nccnc3c2P(C)(C)=O)n1 [compound 169]
8.31 | 9.35 | 6.55 | 1.8 | 8.14 | COc1cc(N2CCO[C@@H](C)C2)c(-c2cnn(C)c2)cc1Nc1ncc(Br)c(Nc2ccc3nccnc3c2P(C)(C)=O)n1 [compound 170]
8.34 | 9.54 | 6.21 | 2.13 | 7.23 | COc1cc(N2CCOCC2)c(-c2cnn(C)c2)cc1Nc1ncc(Br)c(Nc2ccc3nccnc3c2N(C)S(C)(=O)=O)n1 [compound 171, N-(6-((5-bromo-2-((2-methoxy-5-(1-methyl-1H-pyrazol-4-yl)-4-morpholinophenyl)amino)pyrimidin-4-yl)amino)quinoxalin-5-yl)-N-methylmethanesulfonamide]
9.16 | 9.85 | 6.48 | 102 | 328 | COc1cc(N2CCC(N3CC4(CN(C)C4)C3)CC2)c(-c2cnn(C)c2)cc1Nc1ncc(Br)c(Nc2ccc3nccnc3c2P(C)(C)=O)n1 [compound 172]
7.30 | 8.22 | 6.13 | 11.2 | 24.5 | COc1cc(N2CCC(N(C)C(C)C(F)(F)F)CC2)c(-c2cnn(C)c2)cc1Nc1ncc(Br)c(Nc2ccc3nccnc3c2P(C)(C)=O)n1 (stereo not shown) [compound 173]
